One block for each molecule: values may come before it. The source made the active and inactive calls. No cut-off for these calls is given here.
Legend:
[1] = system: DOHH-2; experiment: Induction of apoptosis in human DOHH-2 cells measured by flow cytometry analysis; format: functional, cell-based
[2] = system: DOHH-2; experiment: Induction of cell cycle arrest in human DOHH-2 cells assessed as accumulation at S phase measured by flow cytometry analysis; format: functional, cell-based
[3] = system: DOHH-2; experiment: Induction of cell cycle arrest in human DOHH-2 cells assessed as accumulation at G2/M phase in presence of pictilisib measured by flow cytometry analysis; format: functional, cell-based
[4] = system: DOHH-2; experiment: Induction of cell cycle arrest in human DOHH-2 cells assessed as accumulation at G2/M phase measured by flow cytometry analysis; format: functional, cell-based
[5] = system: OCI-Ly3; experiment: Induction of apoptosis in human OCILY3 cells measured by flow cytometry analysis; format: functional, cell-based
[6] = biological target: T1, Histone deacetylase (Homo sapiens) (UniProt Q13547+O15379+Q9UBN7+Q92769+Q9UQL6+Q8WUI4+Q9BY41+Q96DB2+P56524+Q9UKV0+Q969S8); experiment: Inhibition of HDAC in human DOHH-2 cells assessed as increase in Ac-p53 levels at 0.01 to 1 uM measured by Western blot analysis; format: cell-based; conditions: dose 0.01-1 µM
[7] = system: Toledo; experiment: Antiproliferative activity against human Toledo cells measured after 4 days by Cell Titer Glo Luminescent Cell Viability Assay; format: functional, cell-based; conditions: 96 h
[8] = system: DOHH-2; experiment: Induction of cell cycle arrest in human DOHH-2 cells assessed as accumulation at S phase at 0.01 to 1 uM measured by flow cytometry analysis; format: functional, cell-based; conditions: dose 0.01-1 µM, DDE = dose-dependent effect
[9] = biological target: Phosphatidylinositol 4,5-bisphosphate 3-kinase catalytic subunit alpha isoform (Homo sapiens) (UniProt P42336); experiment: Inhibition of PI3Kalpha in human OCILY3 cells assessed as decrease in AKT phosphorylation at 0.5 to 1 hrs measured by western blot analysis; format: cell-based; conditions: time 0.5-1 hrs
[10] = system: DOHH-2; experiment: Induction of apoptosis in human DOHH-2 cells assessed as upregulation of cleaved-PARP at 0.01 to 1 uM measured by Western blot analysis; format: functional, cell-based; conditions: dose 0.01-1 µM
[11] = biological target: T1, Histone deacetylase (Homo sapiens); experiment: Inhibition of HDAC in human DOHH-2 cells assessed as Down-regulation of STAT3 phosphorylation at Y705 residue at 0.01 to 1 uM measured by Western blot analysis; format: cell-based; conditions: dose 0.01-1 µM
[12] = system: DOHH-2; experiment: Induction of apoptosis in human DOHH-2 cells at 0.01 to 1 uM measured by flow cytometry analysis; format: functional, cell-based; conditions: dose 0.01-1 µM, DDE = dose-dependent effect
[13] = system: DOHH-2; experiment: Antiproliferative activity against human DOHH-2 cells measured after 4 days by Cell Titer Glo Luminescent Cell Viability Assay; format: functional, cell-based; conditions: DOHH-2, 96 h
[14] = system: U2932; experiment: Antiproliferative activity against human U2932 cells measured after 4 days by Cell Titer Glo Luminescent Cell Viability Assay; format: functional, cell-based; conditions: U2932, 96 h
[15] = biological target: T1, Histone deacetylase (Homo sapiens); experiment: Inhibition of HDAC in human OCILY3 cells assessed as decrease in p-S6 level at 0.5 to 12 hrs measured by Western blot analysis; format: cell-based; conditions: time 0.5-12 hrs
[16] = system: DOHH-2; experiment: Induction of apoptosis in human DOHH-2 cells assessed as upregulation of cleaved-caspase3 at 0.01 to 1 uM measured by Western blot analysis; format: functional, cell-based; conditions: dose 0.01-1 µM
[17] = system: Pfeiffer; experiment: Antiproliferative activity against human Pfeiffer cells measured after 4 days by Cell Titer Glo Luminescent Cell Viability Assay; format: functional, cell-based; conditions: 96 h
[18] = biological target: Phosphatidylinositol 4,5-bisphosphate 3-kinase catalytic subunit alpha isoform (Homo sapiens) (UniProt P42336); experiment: Inhibition of PI3Kalpha in human DOHH-2 cells assessed as decrease in AKT phosphorylation at 0.01 to 1 uM measured by western blot analysis; format: cell-based; conditions: dose 0.01-1 µM
[19] = system: SU-DHL-5; experiment: Antiproliferative activity against human SU-DHL-5 cells measured after 4 days by Cell Titer Glo Luminescent Cell Viability Assay; format: functional, cell-based; conditions: SU-DHL-5, 96 h
[20] = system: WSUDLCL2; experiment: Antiproliferative activity against human WSUDLCL2 cells measured after 4 days by Cell Titer Glo Luminescent Cell Viability Assay; format: functional, cell-based; conditions: WSUDLCL2, 96 h
[21] = biological target: Phosphatidylinositol 4,5-bisphosphate 3-kinase catalytic subunit alpha isoform (Homo sapiens) (UniProt P42336); experiment: Inhibition of PI3Kalpha in human OCILY3 cells assessed as decrease in AKT phosphorylation at Ser473 residue at 0.01 to 1 uM measured by western blot analysis; format: cell-based; conditions: dose 0.01-1 µM
[22] = system: OCI-Ly3; experiment: Induction of apoptosis in human OCILY3 cells assessed as upregulation of cleaved-caspase3 at 0.01 to 1 uM measured by Western blot analysis; format: functional, cell-based; conditions: dose 0.01-1 µM
[23] = biological target: T1, Histone deacetylase (Homo sapiens); experiment: Inhibition of HDAC in human DOHH-2 cells assessed as decrease in p-S6 level at 0.5 to 12 hrs measured by Western blot analysis; format: cell-based; conditions: time 0.5-12 hrs
[24] = system: OCI-LY19; experiment: Antiproliferative activity against human OCILY19 cells measured after 4 days by Cell Titer Glo Luminescent Cell Viability Assay; format: functional, cell-based; conditions: OCI-LY19, 96 h
[25] = system: KARPAS-422; experiment: Antiproliferative activity against human KARPAS-422 cells measured after 4 days by Cell Titer Glo Luminescent Cell Viability Assay; format: functional, cell-based; conditions: KARPAS-422, 96 h
[26] = biological target: Phosphatidylinositol 4,5-bisphosphate 3-kinase catalytic subunit alpha isoform (Homo sapiens) (UniProt P42336); experiment: Inhibition of PI3Kalpha in human OCILY3 cells assessed as decrease in AKT phosphorylation at Thr308 residue at 0.01 to 1 uM measured by western blot analysis; format: cell-based; conditions: dose 0.01-1 µM
[27] = biological target: T1, Histone deacetylase (Homo sapiens); experiment: Inhibition of HDAC in human OCILY3 cells assessed as down-regulation of STAT3 phosphorylation at Y705 residue at 0.5 to 12 hrs measured by Western blot analysis; format: cell-based; conditions: time 0.5-12 hrs
[28] = biological target: T1, Histone deacetylase (Homo sapiens); experiment: Inhibition of HDAC in human DOHH-2 cells assessed as increase in Ac-H3 levels at 0.01 to 1 uM measured by Western blot analysis; format: cell-based; conditions: dose 0.01-1 µM
[29] = system: OCI-Ly3; experiment: Antiproliferative activity against human OCILY3 cells measured after 4 days by Cell Titer Glo Luminescent Cell Viability Assay; format: functional, cell-based; conditions: OCI-Ly3, 96 h
[30] = system: OCI-Ly7; experiment: Antiproliferative activity against human OCILY7 cells measured after 4 days by Cell Titer Glo Luminescent Cell Viability Assay; format: functional, cell-based; conditions: OCI-Ly7, 96 h
[31] = system: OCI-Ly3; experiment: Induction of apoptosis in human OCILY3 cells assessed as upregulation of cleaved-PARP at 0.01 to 1 uM measured by Western blot analysis; format: functional, cell-based; conditions: dose 0.01-1 µM
[32] = biological target: T1, Histone deacetylase (Homo sapiens); experiment: Inhibition of HDAC in human DOHH-2 cells assessed as […] level at 0.5 to 12 hrs measured by Western blot analysis; format: cell-based; conditions: time 0.5-12 hrs
[33] = system: SUD4; experiment: Antitumour activity against CM-Dil labeled human SU-DHL-4 cells xenografted in zebrafish embryo assessed as decrease in tumor growth at 3 uM measured by fluorescence based assay; format: functional, cell-based
[34] = system: SU-DHL-6; experiment: Antiproliferative activity against human SU-DHL-6 cells measured after 4 days by Cell Titer Glo Luminescent Cell Viability Assay; format: functional, cell-based; conditions: SU-DHL-6, 96 h
[35] = biological target: T1, Histone deacetylase (Homo sapiens); experiment: Inhibition of HDAC in human OCILY3 cells assessed as increase in Ac-p53 levels at 0.01 to 1 uM measured by Western blot analysis; format: cell-based; conditions: dose 0.01-1 µM
[36] = system: SUD4; experiment: Antiproliferative activity against human SU-DHL-4 cells measured after 4 days by Cell Titer Glo Luminescent Cell Viability Assay; format: functional, cell-based; conditions: SU-DHL-4, 96 h
[37] = system: SU-DHL-8; experiment: Antiproliferative activity against human SU-DHL-8 cells measured after 4 days by Cell Titer Glo Luminescent Cell Viability Assay; format: functional, cell-based; conditions: SU-DHL-8, 96 h
[38] = system: WSU-NHL; experiment: Antiproliferative activity against human WSU-NHL cells measured after 4 days by Cell Titer Glo Luminescent Cell Viability Assay; format: functional, cell-based; conditions: 96 h
[39] = biological target: T1, Histone deacetylase (Homo sapiens); experiment: Inhibition of HDAC in human OCILY3 cells assessed as increase in Ac-H3 levels at 0.01 to 1 uM measured by Western blot analysis; format: cell-based; conditions: dose 0.01-1 µM
[40] = system: SU-DHL10; experiment: Antiproliferative activity against human SU-DHL-10 cells measured after 4 days by Cell Titer Glo Luminescent Cell Viability Assay; format: functional, cell-based; conditions: SU-DHL10, 96 h
[41] = system: OCI-Ly3; experiment: Induction of apoptosis in human OCILY3 cells at 0.01 to 1 uM measured by flow cytometry analysis; format: functional, cell-based; conditions: dose 0.01-1 µM, DDE = dose-dependent effect
[42] = biological target: T1, Histone deacetylase (Homo sapiens); experiment: Inhibition of HDAC in human OCILY3 cells assessed as effect on pS6 levels at 0.01 to 1 uM measured by Western blot analysis; format: cell-based; conditions: dose 0.01-1 µM
[43] = biological target: T1, Histone deacetylase (Homo sapiens); experiment: Inhibition of HDAC in human OCILY3 cells assessed as […] level at 0.5 to 12 hrs measured by Western blot analysis; format: cell-based; conditions: time 0.5-12 hrs
[44] = biological target: Phosphatidylinositol 4,5-bisphosphate 3-kinase catalytic subunit alpha isoform (Homo sapiens) (UniProt P42336); experiment: Inhibition of PI3Kalpha in human DOHH-2 cells assessed as decrease in AKT phosphorylation at 0.5 to 1 hrs measured by western blot analysis; format: cell-based; conditions: time 0.5-1 hrs
[45] = Antiproliferative activity against human HBL1 cells measured after 4 days by Cell Titer Glo Luminescent Cell Viability Assay; format: functional, cell-based; conditions: HBL1, 96 h
[46] = biological target: T1, Histone deacetylase (Homo sapiens); experiment: Inhibition of HDAC in human OCILY3 cells assessed as Down-regulation of STAT3 phosphorylation at Y705 residue at 0.01 to 1 uM measured by Western blot analysis; format: cell-based; conditions: dose 0.01-1 µM
[47] = biological target: T1, Histone deacetylase (Homo sapiens); experiment: Inhibition of HDAC in human DOHH-2 cells assessed as effect on pS6 levels at 0.01 to 1 uM measured by Western blot analysis; format: cell-based; conditions: dose 0.01-1 µM
[48] = biological target: T1, Histone deacetylase (Homo sapiens); experiment: Inhibition of HDAC in human DOHH-2 cells assessed as down-regulation of STAT3 phosphorylation at Y705 residue at 0.5 to 12 hrs measured by Western blot analysis; format: cell-based; conditions: time 0.5-12 hrs
[49] = biological target: T1, Histone deacetylase (Homo sapiens); experiment: Inhibition of HDAC in human OCILY3 cells assessed as effect on pS6 levels at 10 uM measured by Western blot analysis; format: cell-based
[50] = biological target: T1, Histone deacetylase (Homo sapiens); experiment: Inhibition of HDAC in human DOHH-2 cells assessed as effect on pS6 levels at 10 uM measured by Western blot analysis; format: cell-based
[51] = biological target: T1, Histone deacetylase (Homo sapiens); experiment: Inhibition of HDAC in human OCILY3 cells assessed as Down-regulation of STAT3 phosphorylation at Y705 residue at 10 uM measured by Western blot analysis; format: cell-based
[52] = biological target: T1, Histone deacetylase (Homo sapiens); experiment: Inhibition of HDAC in human DOHH-2 cells assessed as Down-regulation of STAT3 phosphorylation at Y705 residue at 10 uM measured by Western blot analysis; format: cell-based

Sequence of Phosphatidylinositol 4,5-bisphosphate 3-kinase catalytic subunit alpha isoform (Homo sapiens) (P42336 whole entry, canonical isoform): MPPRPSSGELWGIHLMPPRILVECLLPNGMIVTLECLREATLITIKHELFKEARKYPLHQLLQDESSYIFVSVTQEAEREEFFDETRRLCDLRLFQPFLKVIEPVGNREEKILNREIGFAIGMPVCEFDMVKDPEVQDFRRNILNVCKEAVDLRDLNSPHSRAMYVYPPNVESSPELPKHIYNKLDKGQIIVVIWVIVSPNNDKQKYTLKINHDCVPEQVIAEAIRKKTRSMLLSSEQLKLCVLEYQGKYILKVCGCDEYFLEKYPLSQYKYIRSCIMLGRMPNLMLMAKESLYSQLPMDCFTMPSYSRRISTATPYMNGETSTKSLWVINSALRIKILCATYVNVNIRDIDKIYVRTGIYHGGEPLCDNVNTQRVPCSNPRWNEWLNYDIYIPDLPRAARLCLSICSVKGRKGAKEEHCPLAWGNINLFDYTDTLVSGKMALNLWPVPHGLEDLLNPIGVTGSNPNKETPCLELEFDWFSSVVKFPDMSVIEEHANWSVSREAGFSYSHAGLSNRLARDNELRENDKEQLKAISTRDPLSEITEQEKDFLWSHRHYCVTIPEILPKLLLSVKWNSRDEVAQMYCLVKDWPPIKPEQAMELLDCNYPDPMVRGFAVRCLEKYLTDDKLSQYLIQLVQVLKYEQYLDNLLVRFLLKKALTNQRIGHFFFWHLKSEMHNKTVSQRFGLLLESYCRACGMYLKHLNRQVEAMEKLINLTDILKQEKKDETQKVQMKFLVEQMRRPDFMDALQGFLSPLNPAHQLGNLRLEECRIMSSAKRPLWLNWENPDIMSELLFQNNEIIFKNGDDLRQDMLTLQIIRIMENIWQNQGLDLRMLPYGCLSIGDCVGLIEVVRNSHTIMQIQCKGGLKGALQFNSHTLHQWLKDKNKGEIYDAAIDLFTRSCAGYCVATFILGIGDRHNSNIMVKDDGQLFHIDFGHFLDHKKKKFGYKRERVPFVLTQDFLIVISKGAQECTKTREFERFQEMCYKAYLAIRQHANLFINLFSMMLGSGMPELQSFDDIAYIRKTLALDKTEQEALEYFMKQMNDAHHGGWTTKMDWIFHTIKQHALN

Compound: O=C(CCCCCCC(=O)Nc1ccccc1)NO
Activity [1]: Active | Activity [2]: Active | Activity [3]: Active | Activity [4]: Active | Activity [5]: Active

inhibition [6]: Active | inhibition [9]: Active | inhibition [11]: Active | inhibition [15]: Active | inhibition [18]: Active | IC50 [19]: 3.6 nM | inhibition [21]: Active | inhibition [23]: Active | IC50 [24]: 19.2 nM | IC50 [25]: 21 nM | inhibition [26]: Active | inhibition [27]: Active | inhibition [28]: Active | IC50 [29]: 3.6 nM | IC50 [30]: 5.6 nM | inhibition [32]: Active | IC50 [34]: 6.5 nM | inhibition [35]: Active | IC50 [37]: 6.4 nM | inhibition [39]: Active | IC50 [40]: 9.7 nM | inhibition [42]: Active | inhibition [43]: Active | inhibition [44]: Active | inhibition [46]: Active | inhibition [47]: Active | inhibition [48]: Active
Compound: COc1ccc(-c2cc(OCCN(C)c3ncc(C(=O)NO)cn3)c3ncnc(C)c3c2)cn1
IC50 [7]: 5.6 nM | Activity [8]: Dde | Activity [10]: Active | Activity [12]: Dde | IC50 [13]: 7.7 nM | IC50 [14]: 17.7 nM | Activity [16]: Active | IC50 [17]: 5.3 nM | IC50 [20]: 16 nM | Activity [22]: Active | Activity [31]: Active | Activity [33]: Active | IC50 [36]: 7.6 nM | IC50 [38]: 5.2 nM | Activity [41]: Dde | IC50 [45]: 7.9 nM

inhibition [49]: Active | inhibition [50]: Active | inhibition [51]: Active | inhibition [52]: Active
Compound: CS(=O)(=O)N1CCN(Cc2cc3nc(-c4cccc5[nH]ncc45)nc(N4CCOCC4)c3s2)CC1
Activity [1]: Active | Activity [2]: Active | Activity [4]: Active | Activity [5]: Active
